Where “and” joins values, the source holds several entries; their conditions need not be identical. Equal entries are not always repeated.
Tests used:
[1] = tested on: MHH-Call4; test: Cytotoxicity, MTS cell viability; assay type: cell-based; conditions: MHHCALL4, 72 h, B-ALL, 3 days MTS
Experimental: (§1) Cells were seeded in a 96 well plate and treated with either vehicle (DMSO) or compound 7 at 10 different concentrations for 3 days at 37° C. and 5% CO2. Cell viability was assessed using CellTiter 96 AQueous one solution (MTS Promega Cat#G3581), and IC50 values calculated using GraphPad Prism 7 software.

[2] = tested on: DOHH2; test: Cytotoxicity, MTS cell viability; assay type: cell-based; conditions: Homo sapiens, DOHH-2, 72 h, FL, 3 days MTS
Experimental: as §1

[3] = tested on: OCI-LY3; test: Cytotoxicity, MTS cell viability; assay type: cell-based; conditions: Homo sapiens, 72 h, ABC-DLBCL, 3 days MTS
Experimental: as §1

[4] = tested on: SU-DHL2; test: Cytotoxicity, MTS cell viability; assay type: cell-based; conditions: Homo sapiens, SU-DHL-2, 72 h, ABC-DLBCL, 3 days MTS
Experimental: as §1

[5] = tested on: BJAB; test: Cytotoxicity, MTS cell viability; assay type: cell-based; conditions: Homo sapiens, 72 h, GCB-DLBCL, 3 days MTS
Experimental: as §1

[6] = tested on: L1236; test: Cytotoxicity, MTS cell viability; assay type: cell-based; conditions: L-1236, 72 h, HL, 3 days MTS
Experimental: as §1

[7] = tested on: U2932; test: Cytotoxicity, MTS cell viability; assay type: cell-based; conditions: Homo sapiens, 72 h, ABC-DLBCL, 3 days MTS
Experimental: as §1

[8] = tested on: MOLM14 (FLT3-ITD, t(9:11)); test: Antiproliferative activity (Table 6); assay type: cell-based; conditions: Homo sapiens, MOLM-14, 72 h
[9] = molecular target: BTK C481S (Homo sapiens, UniProt Q06187, C481S); test: Comparative potency against BTK (Table 8); assay type: biochemical; conditions: x printed without key
Chain of BTK C481S (Q06187 whole entry C481S): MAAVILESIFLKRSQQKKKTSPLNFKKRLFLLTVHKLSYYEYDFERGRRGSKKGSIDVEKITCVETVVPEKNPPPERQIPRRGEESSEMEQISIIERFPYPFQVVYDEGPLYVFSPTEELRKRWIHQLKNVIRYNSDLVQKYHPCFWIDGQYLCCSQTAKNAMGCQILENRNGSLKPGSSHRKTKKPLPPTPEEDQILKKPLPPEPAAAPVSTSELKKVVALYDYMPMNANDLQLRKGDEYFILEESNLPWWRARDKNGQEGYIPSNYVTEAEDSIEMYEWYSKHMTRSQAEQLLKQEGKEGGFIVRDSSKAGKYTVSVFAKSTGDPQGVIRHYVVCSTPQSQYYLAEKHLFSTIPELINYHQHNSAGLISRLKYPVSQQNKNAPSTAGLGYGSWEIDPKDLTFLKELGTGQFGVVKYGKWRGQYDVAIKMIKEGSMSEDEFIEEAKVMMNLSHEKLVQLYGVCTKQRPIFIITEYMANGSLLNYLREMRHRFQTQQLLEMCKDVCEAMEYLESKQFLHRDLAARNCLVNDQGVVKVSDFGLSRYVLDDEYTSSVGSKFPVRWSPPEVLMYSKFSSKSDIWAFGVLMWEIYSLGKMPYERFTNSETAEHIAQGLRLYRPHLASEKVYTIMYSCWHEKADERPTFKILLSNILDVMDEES

[10] = tested on: Ba/F3-ITD + D835Y (FLT3-ITD + D835Y); test: Antiproliferative activity (Table 6); assay type: cell-based, Murin; conditions: 72 h
[11] = tested on: BTK pathway in EOL-1 cells; test: Western blot analysis in EOL-1 cells; assay type: cell-based; conditions: 0.5, 5.0, and 50 nM, FIG. 3
Experimental: Immunoblot assays: Cells were treated with Compound 7 at various concentrations and collected for cell lysates. The total and phosphorylated levels of the indicated proteins were determined by Western Blot.

[12] = tested on: Mino; test: Apoptosis in B-cell malignancies (annexin V/PI, cleaved PARP); assay type: cell-based, human; conditions: increasing concentrations
Experimental: Mechanistic studies were undertaken to determine the mechanism of action for Compound 7. The apoptotic state of treated cells was determined by staining with annexin V and propidium iodide (PI), then analysis with the BD Accuri C6 flow cytometer, whereby live cells are annexin V/PI negative, early apoptotic cells are annexin V positive and late apoptotic cells are annexin V and PI positive. In addition production of cleaved PARP, a classic apoptotic marker, was assayed by western blotting with specific antibodies.

[13] = tested on: ALL patient samples; test: Ex vivo assay for patient sensitivity (MTS, 3-day culture); assay type: cell-based, human; conditions: N evaluated 18
Experimental: (§2) 85 Patients with a diagnosis of acute myeloid leukemia (AML), 15 patients with myelodysplastic syndrome/myeloproliferative neoplasms (MDS/MPN), 18 patients with acute lymphoblastic leukemia (ALL), and 56 patients with chronic lymphocytic leukemia (CLL) were evaluated for sensitivity to the multi-kinase inhibitor, Compound 7, using an ex vivo assay. Sensitivity to Compound 7 was evaluated across a concentration range from 10 nM to 10 μM. Cell viability was assessed using a colorimetric, tetrazolium-based MTS assay after a 3-day culture period, and IC50 values were calculated as a measure of drug sensitivity.

[14] = tested on: AML patient samples; test: as above; assay type: cell-based, human; conditions: N evaluated 85, 10 nM to 10 μM
Experimental: as §2

[15] = tested on: CLL patient samples; test: as above; assay type: cell-based, human; conditions: N evaluated 56
Experimental: as §2

[16] = tested on: MDS/MPN patient samples; test: as above; assay type: cell-based, human; conditions: N evaluated 15
Experimental: as §2

[17] = Pharmacokinetic study in rat; assay type: in vivo
[18] = tested on: Kasumi-1 (FLT3-WT); test: Antiproliferative activity (Table 6); assay type: cell-based; conditions: Homo sapiens, Kasumi 1, 72 h
[19] = tested on: Ba/F3 cells transfected with FLT3 ITD; test: Cytotoxicity in isogenic transfected Ba/F3 cells (Table 4); assay type: cell-based, Murin; conditions: Mus musculus, BaF3, read-out: IC50 in Transfected Ba/F3 cells, FLT3 ITD
[20] = molecular target: FLT3(WT) (Homo sapiens, UniProt P36888); test: Binding constant (Kd), competition binding with qPCR readout
[21] = tested on: Ba/F3 cells transfected with FLT3 ITD-D835Y; test: Cytotoxicity in isogenic transfected Ba/F3 cells (Table 4); assay type: cell-based, Murin; conditions: Mus musculus, BaF3, read-out: IC50 in Transfected Ba/F3 cells, FLT3 ITD-D835Y
[22] = molecular target: T1, wild-type BTK (Homo sapiens, UniProt Q06187); test: BTK phosphorylation in transfected HEK293T cells (Western blot); assay type: cell-based; conditions: HEK293T transfected with wild-type BTK; 0.5 and 1.0 μM, six hours
T1 construct: expressed in transfected cells; host or cells: HEK293T
T1 sequence (Q06187 whole entry): as the sequence (Q06187 whole entry C481S) above, with S481C counted along it
Experimental: (§3) HEK293T cells were transiently transfected with wild-type BTK or C481S BTK. The transfected cells were treated with or without Compound 7 (0.5 and 1.0 μM) for six hours. This was performed in triplicate and the results were analyzed by Western Blot analysis.

[23] = molecular target: T2, C481S BTK (Homo sapiens, UniProt Q06187, C481S); test: as above; assay type: cell-based; conditions: HEK293T transfected with C481S BTK; 0.5 and 1.0 μM, six hours
T2 construct: expressed in transfected cells; host or cells: HEK293T
T2 sequence (Q06187 whole entry C481S): as the sequence (Q06187 whole entry C481S) above
Experimental: as §3

[24] = tested on: MOLM-13 cells; test: Cell-cycle analysis (flow cytometry); assay type: cell-based, human; conditions: dose-dependent
Experimental: Cell-cycle analysis: Cells were treated with vehicle, DMSO or Compound 7 and were stained with PI and EdU, and then analyzed by flow cytometry to determine the phases of cell cycle.

[25] = molecular target: T3, FLT3(K663Q) (Homo sapiens, UniProt P36888, K663Q); test: Binding constant (Kd), competition binding with qPCR readout
T3 construct: made in house; host or cells: E. coli BL21-derived host (T7 phage) or HEK-293

Q: What does the source list for `Cc1cnc(-c2ccc(-c3ccc(NC(=O)Nc4c(F)cc(F)cc4F)cc3F)c3c2C(=O)NC3)[nH]1` [Compound 7, 1-{3-fluoro-4-[7-(5-methyl-1H-imidazol-2-yl)-1-oxo-2,3-dihydro-1H-isoindol-4-yl]-phenyl}-3-(2,4,6-trifluorophenyl)urea]?
A: IC50 [1]: 27.8 nM; IC50 [2]: 2.94 nM; IC50 [3]: 830 nM; IC50 [4]: 744 nM; IC50 [5]: 882 nM; IC50 [6]: 7820 nM; IC50 [7]: 632 nM; IC50 [8]: 0.92 nM; IC50 [9]: 2.5 nM; IC50 [10]: 9.72 nM; Inhibition of BTK pathway (Western blot) [11]: inhibits BTK pathway; Apoptosis induction versus ibrutinib [12]: induced apoptosis more effectively than ibrutinib at all concentrations tested; % samples with IC50 < 0.1 μM [13]: 61 (11/18) %; % samples with IC50 < 0.1 μM [14]: 60% and 60 (51/85) %; % samples with IC50 < 0.1 μM [15]: 41 (23/56) %; % samples with IC50 < 0.1 μM [16]: 53 (8/15) %; Exposure ([17]; 2 mg/kg administered by i.v.): Reasonable exposure; AUC ([17]; administered orally, FIG. 5): AUC improves in a dose-dependent manner; IC50 [18]: 22 nM; IC50 [19]: 0.5 nM; Kd [20]: 0.24 nM; IC50 [21]: 19.3 nM; Inhibition of BTK (reduction in phosphorylated forms) [22]: inhibits both wild-type and the C481S mutant form of BTK; Inhibition of BTK (reduction in phosphorylated forms) [23]: inhibits both wild-type and the C481S mutant form of BTK; G0/G1 cell-cycle arrest [24]: induce G0/G1 cell-cycle arrest; Kd [25]: 0.55 nM
